What was measured:
IRP1 = biological target: T1, IRP1 (Mus musculus, UniProt P28271); test: Gel-shift of IRP1 in wild type and IRP2−/− mouse embryonic fibroblasts after Tempo1 or DFO and washout; assay type: cell-based; parameters: Embryonic fibroblasts of 13-day old embryos were isolated from wild type, IRP1−/− mice and IRP2−/− mice; endogenous in cells; host or cells: mouse embryonic fibroblasts (wild type and IRP2−/−)
T1 sequence (P28271 1-889): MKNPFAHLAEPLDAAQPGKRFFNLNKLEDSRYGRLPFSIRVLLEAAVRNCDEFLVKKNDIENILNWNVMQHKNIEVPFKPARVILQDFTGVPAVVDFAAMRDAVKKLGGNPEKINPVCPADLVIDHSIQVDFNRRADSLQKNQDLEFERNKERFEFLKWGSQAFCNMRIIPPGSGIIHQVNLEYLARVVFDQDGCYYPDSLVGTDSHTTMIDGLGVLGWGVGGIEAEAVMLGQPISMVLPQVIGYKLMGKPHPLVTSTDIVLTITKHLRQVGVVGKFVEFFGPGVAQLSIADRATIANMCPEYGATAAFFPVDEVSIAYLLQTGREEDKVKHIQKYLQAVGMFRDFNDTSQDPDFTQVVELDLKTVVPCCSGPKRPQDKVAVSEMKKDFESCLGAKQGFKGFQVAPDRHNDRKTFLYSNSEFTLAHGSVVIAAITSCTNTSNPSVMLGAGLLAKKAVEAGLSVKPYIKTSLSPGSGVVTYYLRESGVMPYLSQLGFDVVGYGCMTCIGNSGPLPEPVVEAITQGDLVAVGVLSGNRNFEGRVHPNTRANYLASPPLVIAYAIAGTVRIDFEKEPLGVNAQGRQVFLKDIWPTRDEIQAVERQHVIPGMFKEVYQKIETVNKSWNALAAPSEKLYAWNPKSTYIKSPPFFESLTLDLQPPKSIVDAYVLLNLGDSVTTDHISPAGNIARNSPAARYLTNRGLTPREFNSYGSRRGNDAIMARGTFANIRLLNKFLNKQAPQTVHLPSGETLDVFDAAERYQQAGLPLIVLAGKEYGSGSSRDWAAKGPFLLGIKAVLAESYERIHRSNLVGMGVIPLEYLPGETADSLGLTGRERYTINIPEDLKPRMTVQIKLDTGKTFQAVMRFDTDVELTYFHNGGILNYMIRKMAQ
Protocol: (§1) Cells: Embryonic fibroblasts of 13-day old embryos were isolated from wild type, IRP1−/− mice and IRP2−/− mice as described in LaVaute et al. supra. Myc-tagged HEK 293 Tet-on cell line, in which IRP2 expression was inducible, was prepared and cultured as described Bourdon et al., Blood Cells Mol Dis, 31, 247-255 (2003). Erythroblasts were harvested from bone marrow and purified as described in Cooperman et al., Blood, 106, 1084-1091 (2005).
RNA mobility shift assays: Gel retardation assays were performed as described in Meyron-Holtz et al., EMBO J, 23, 386-395 (2004). Tissue lysates were prepared in an anaerobic chamber as described above in oxygen-depleted lysis buffer containing 10 mM HEPES (pH 7.2), 3 mM MgC12, 40 mM KCl, 5% glycerol, 0.2% Nonidet P-40, 5 mM DTT, 1 mM AEBSF, 10 μg/ml. Leupeptin and complete TM EDTA free protease inhibitor cocktail (Roche Applied Science, Indiana). Lysate (x μl) containing 10 μg of total protein was added to (12.5−x) μl of bandshift buffer containing 25 mM Tris-HCl (pH 7.5) and 40 mM KCl. The samples were incubated for 5 min at room temperature (RT) with 12.5 μl of a reaction cocktail containing 20% glycerol, 0.2 U/μl Super RNAsine (Ambion, Tex.), 0.6 μg/μl yeast t-RNA, 5 mM DTT and 20 nM 32P-labelled IRE from human ferritin H-chain gene in 25 mM Tris-HCl (pH 7.5) and 40 mM KCl. A measure of 20 μl of this reaction mixture was loaded into a 10% acrylamide/TBE gel, which was run at 200 V for 2.15 h, and then the gel was fixed, dried and exposed for autoradiography.
To determine whether the effect of Tempo1 on IRP1 activity was kinetically consistent with oxidative disassembly of the iron sulfur cluster, the effect of Tempo1 on aconitase activity was compared to that of the iron chelator, deferiprone (DFO), which activates IRE-binding activity of IRP1 by limiting de novo synthesis and repair of the iron sulfur cluster in IRP1. […] Recovery of aconitase activity was assessed in wild type and IRP2−/− cells.

TfR1 = test: Western blot of TfR1 in IRP2−/− embryonic fibroblasts; assay type: cell-based, mouse; conditions: 0.3 and 1.0 mM, 16 h, with or without FAC
Protocol: as §1
Western blotting and antibodies: Protein analysis was carried out as described in LaVaute et al., supra. Equal amounts of protein (20-40 μg/lane) were separated on 13% SDSPAGE and transferred to nitrocellulose membranes. The membrane was blocked with 5% non-fat milk, 0.1% Triton X-100 in PBS and probed at RT in the same blocking buffer. IRP1 antibody was prepared against purified hIRP1 and used at 1:5000 dilution. L-ferritin antibody was raised in rabbit from L-ferritin protein purified from mouse livers. […]
To study the effect of Tempo1 on the IRE-binding activity of IRP1, IRP2−/− embryonic fibroblasts that were maintained in culture supplemented with 0, 0.3 and 1.0 mM Tempo1, with or without ferric ammonium citrate (FAC), for 16 h. […] Quantification was performed with the IQMac (IRP1 activity) or NIH Image (protein levels) program. Error bars represent the standard deviation calculated from the results of two different sets of experiments.

Which “time to reversal of the activation of IRE-binding activity after removal” value (IRP1; mouse embryonic fibroblasts, 16 hours treatment, then fresh unsupplemented media) does the source give for `CC1(C)CC(O)CC(C)(C)N1[O]` [Tempo1] here?
Its value is no more than 2 h.

And the “IRE-binding activity of IRP1” value (IRP1; wild type and IRP2−/− mouse embryonic fibroblasts treated 16 hours)?
The value was “activated”.

What about the TfR1 levels (TfR1) of the same molecule?
Its TfR1 levels is “increased”.
